Experimental data from patent US20260001889A1, “COMPOSITIONS USEFUL FOR MODULATING SPLICING” (Skyhawk Therapeutics, Inc., priority 2022, published 2026).

Key:
[1] = test system: total ATXN3 protein; experiment: ATXN3 Total Protein Assay (Mesoscale Discovery, SK-N-MC cells); type: cell-based, Human; details: incubation for 48 hours, MSD assay
Summary of the method: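 Human SK-N-MC neuroblastoma cells treated with compound at 30 μM to 0.6 nM for 48 h, then lysed with protease inhibitors. Total ATXN3 quantified by MSD sandwich immunoassay (mouse capture, rabbit detect antibodies, anti-rabbit MSD-ST secondary) against recombinant ATXN3 standards.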

[2] = test system: ATXN3-HiBiT protein; experiment: ATXN3 Total Protein Assay (Kelly-ATXN3-HiBiT luminescence); type: cell-based; details: Kelly-ATXN3-HiBiT cells, 48 h after addition of compound
Summary of the method: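 Kelly cells with homozygous C-terminal HiBiT knock-in on endogenous ATXN3, 2000 per well, dosed 24 h after seeding. HiBiT lytic luminescence read 48 h after compound; sister plate read with CellTiter-Glo for viability; fold change vs DMSO.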

[3] = test system: ATXN3 transcripts containing exon 4; experiment: ATXN3 Quantitative Splicing Assay (qPCR, E4E5 primers/probe); type: cell-based; details: Homo sapiens, SK-N-MC cells, compounds for 24 h
Summary of the method: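 SK-N-MC human neuroblastoma cells treated 24 h with compound from 30 μM to 0.6 nM, 24 h after plating. Lysate cDNA was run in TaqMan qPCR, with primers/probe E4E5 detecting exon 4-containing ATXN3 transcripts and E8E9 measuring total ATXN3.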

Row | IC50 [1] [nM] | EC50 [2] [nM] | IC50 [3] [nM] | Compound
1 | 101 to 500 | 101 to 500 | 101 to 500 | C[C@H](F)[C@H](N)Cc1oc2c(NCc3ccc(F)s3)cc(Cl)nc2c1Cl [Compound 108, 2-[(2R,3S)-2-amino-3-fluorobutyl]-3,5-dichloro-7-{[(5-fluoro-2-thienyl)methyl]amino}-1-oxa-4-azaindene]
2 | 0.01 to 100 | 101 to 500 | 0.01 to 100 | C[C@H](F)[C@H](N)Cc1oc2c(NCc3nccs3)cc(Cl)nc2c1Cl [Compound 109, 2-[(2R,3S)-2-amino-3-fluorobutyl]-3,5-dichloro-7-{[(1,3-thiazol-2-yl)methyl]amino}-1-oxa-4-azaindene]
3 | 101 to 500 | 101 to 500 | 101 to 500 | C[C@H](F)[C@H](N)Cc1oc2c(NCc3ccccc3)cc(Cl)nc2c1Cl [Compound 110, 2-[(2R,3S)-2-amino-3-fluorobutyl]-7-benzylamino-3,5-dichloro-1-oxa-4-azaindene]
4 | 101 to 500 | 101 to 500 | 101 to 500 | Cc1c(C[C@@H](N)[C@H](C)F)oc2c(NCc3cccs3)cc(C#N)nc12 [Compound 111, 2-[(2R,3S)-2-amino-3-fluorobutyl]-3-methyl-7-thenylamino-1-oxa-4-aza-5-indenecarbonitrile]
5 | 101 to 500 | 101 to 500 | 101 to 500 | COC[C@H](N)Cc1oc2c(NCc3ccncc3)cc(Cl)nc2c1Cl [Compound 113, 2-[(R)-2-amino-3-methoxypropyl]-3,5-dichloro-7-{[(4-pyridyl)methyl]amino}-1-oxa-4-azaindene]
6 | 501 to 5000 | 501 to 5000 | 501 to 5000 | C[C@@H](F)[C@H](N)Cc1oc2c(NCc3ccco3)cc(Cl)nc2c1Br [Compound 114, 2-[(2R,3R)-2-amino-3-fluorobutyl]-3-bromo-5-chloro-7-(furfurylamino)-1-oxa-4-azaindene]
7 | 101 to 500 | 101 to 500 | 101 to 500 | N[C@@H](COC1CC1)Cc1oc2c(NCc3cccs3)cc(Cl)nc2c1Br [Compound 115, 2-[(R)-2-amino-3-cyclopropoxypropyl]-3-bromo-5-chloro-7-thenylamino-1-oxa-4-azaindene]
8 | 101 to 500 | 501 to 5000 | 101 to 500 | N[C@@H](COC(F)(F)F)Cc1oc2c(NCc3cccs3)cc(Cl)nc2c1Br [Compound 116, 2-[(R)-2-amino-3-trifluoromethoxypropyl]-3-bromo-5-chloro-7-thenylamino-1-oxa-4-azaindene]
9 | 0.01 to 100 | 0.01 to 100 | 0.01 to 100 | N[C@@H](COC(F)F)Cc1oc2c(NCc3cccs3)cc(Cl)nc2c1Br [Compound 117, 2-[(R)-2-amino-3-difluoromethoxypropyl]-3-bromo-5-chloro-7-thenylamino-1-oxa-4-azaindene]
10 | 0.01 to 100 | 0.01 to 100 | 0.01 to 100 | C[C@H](F)[C@H](N)Cc1oc2c(NCc3ccco3)cc(Cl)nc2c1Br [Compound 118, 2-[(2R,3S)-2-amino-3-fluorobutyl]-3-bromo-5-chloro-7-(furfurylamino)-1-oxa-4-azaindene]
11 | 0.01 to 100 | 101 to 500 | 0.01 to 100 | C[C@H](F)[C@H](N)Cc1oc2c(NCc3ccncc3)cc(Cl)nc2c1Br [Compound 119, 2-[(2R,3S)-2-amino-3-fluorobutyl]-3-bromo-5-chloro-7-{[(4-pyridyl)methyl]amino}-1-oxa-4-azaindene]
12 | 101 to 500 | 501 to 5000 | 101 to 500 | C#Cc1c(C[C@@H](N)CC(F)(F)F)oc2c(NCc3ccco3)cc(Cl)nc12 [Compound 120, 2-[(R)-2-amino-4,4,4-trifluorobutyl]-5-chloro-3-ethynyl-7-(furfurylamino)-1-oxa-4-azaindene]
13 | 101 to 500 | 101 to 500 | 101 to 500 | C#Cc1c(C[C@@H](N)CC(F)(F)F)oc2c(NCc3cccs3)cc(Cl)nc12 [Compound 121, 2-[(R)-2-amino-4,4,4-trifluorobutyl]-5-chloro-3-ethynyl-7-thenylamino-1-oxa-4-azaindene]
14 | 0.01 to 100 | 0.01 to 100 | 0.01 to 100 | C#Cc1c(C[C@@H](N)[C@H](C)F)oc2c(NCc3ccco3)cc(Cl)nc12 [Compound 122, 2-[(2R,3S)-2-amino-3-fluorobutyl]-5-chloro-3-ethynyl-7-(furfurylamino)-1-oxa-4-azaindene]
15 | 0.01 to 100 | 0.01 to 100 | 0.01 to 100 | C#Cc1c(C[C@@H](N)[C@H](C)F)oc2c(NCc3cccs3)cc(Cl)nc12 [Compound 123, 2-[(2R,3S)-2-amino-3-fluorobutyl]-5-chloro-3-ethynyl-7-thenylamino-1-oxa-4-azaindene]
16 | 0.01 to 100 | 0.01 to 100 | 0.01 to 100 | C[C@H](O)[C@H](N)Cc1oc2c(NCc3cccs3)cc(Cl)nc2c1Br [Compound 125, (2S,3R)-3-amino-4-(3-bromo-5-chloro-7-thenylamino-1-oxa-4-aza-2-indenyl)-2-butanol]
17 | 101 to 500 | 101 to 500 | 101 to 500 | C[C@@H](O)[C@H](N)Cc1oc2c(NCc3cccs3)cc(Cl)nc2c1Br [Compound 126, (2R,3R)-3-amino-4-(3-bromo-5-chloro-7-thenylamino-1-oxa-4-aza-2-indenyl)-2-butanol]
18 | 0.01 to 100 | 0.01 to 100 | 101 to 500 | N[C@@H](CCO)Cc1oc2c(NCc3cccs3)cc(Cl)nc2c1Br [Compound 131, (S)-3-amino-4-(3-bromo-5-chloro-7-thenylamino-1-oxa-4-aza-2-indenyl)-1-butanol]
19 | 101 to 500 | 501 to 5000 | 501 to 5000 | CC#C[C@H](N)Cc1oc2c(NCc3cccs3)cc(Cl)nc2c1Br [Compound 132, 2-[(R)-2-amino-3-pentynyl]-3-bromo-5-chloro-7-thenylamino-1-oxa-4-azaindene]
20 | 501 to 5000 | 501 to 5000 | 501 to 5000 | N[C@H](Cc1oc2c(NCc3cccs3)cc(Cl)nc2c1Br)C1CC(F)(F)C1 [Compound 133, 2-[(R)-2-amino-2-(3,3-difluorocyclobutyl)ethyl]-3-bromo-5-chloro-7-thenylamino-1-oxa-4-azaindene]
21 | 501 to 5000 | 501 to 5000 | 501 to 5000 | N[C@H](Cc1oc2c(NCc3cccs3)cc(Cl)nc2c1Br)C1CC1 [Compound 134, 2-[(R)-2-amino-2-cyclopropylethyl]-3-bromo-5-chloro-7-thenylamino-1-oxa-4-azaindene]
22 | 501 to 5000 | 501 to 5000 | 501 to 5000 | C#Cc1c(C[C@@H](N)C2CC(F)(F)C2)oc2c(NCc3cccs3)cc(Cl)nc12 [Compound 139, 2-[(R)-2-amino-2-(3,3-difluorocyclobutyl)ethyl]-5-chloro-3-ethynyl-7-thenylamino-1-oxa-4-azaindene]
23 | 101 to 500 | 101 to 500 | 101 to 500 | C[C@H](F)[C@H](N)Cc1oc2c(NCc3sccc3F)cc(Cl)nc2c1Cl [Compound 140, 2-[(2R,3S)-2-amino-3-fluorobutyl]-3,5-dichloro-7-{[(3-fluoro-2-thienyl)methyl]amino}-1-oxa-4-azaindene]
24 | 101 to 500 | 101 to 500 | 101 to 500 | Cc1c(C[C@@H](N)[C@H](C)F)oc2c(NCc3sccc3F)cc(Cl)nc12 [Compound 142, 2-[(2R,3S)-2-amino-3-fluorobutyl]-5-chloro-7-{[(3-fluoro-2-thienyl)methyl]amino}-3-methyl-1-oxa-4-azaindene]
25 | 101 to 500 | 101 to 500 | 101 to 500 | N[C@@H](CCF)Cc1oc2c(NCc3cccs3)cc(Cl)nc2c1Br [Compound 145, 2-[(R)-2-amino-4-fluorobutyl]-3-bromo-5-chloro-7-thenylamino-1-oxa-4-azaindene]
26 | 0.01 to 100 | 0.01 to 100 | 0.01 to 100 | C[C@H](F)[C@H](N)Cc1oc2c(NCc3cccs3)cc(Cl)nc2c1Cl [Compound 148, 2-[(2R,3S)-2-amino-3-fluorobutyl]-3,5-dichloro-7-thenylamino-1-oxa-4-azaindene]
27 | 101 to 500 | 101 to 500 | 101 to 500 | C[C@H](F)[C@H](N)Cc1oc2c(NCc3ccncc3F)cc(Cl)nc2c1Cl [Compound 149, 2-[(2R,3S)-2-amino-3-fluorobutyl]-3,5-dichloro-7-{[(3-fluoro-4-pyridyl)methyl]amino}-1-oxa-4-azaindene]
28 | 0.01 to 100 | 0.01 to 100 | 0.01 to 100 | C[C@H](F)[C@H](N)Cc1oc2c(NCc3ccco3)cc(Cl)nc2c1Cl [Compound 150, 2-[(2R,3S)-2-amino-3-fluorobutyl]-3,5-dichloro-7-(furfurylamino)-1-oxa-4-azaindene]
29 | 101 to 500 | 0.01 to 100 | 0.01 to 100 | C#Cc1cc(NCc2cccs2)c2oc(C[C@@H](N)COC)c(Br)c2n1 [Compound 151, 2-[(R)-2-amino-3-methoxypropyl]-3-bromo-5-ethynyl-7-thenylamino-1-oxa-4-azaindene]

Row | Compound | IC50 [1] [nM] | EC50 [2] [nM] | IC50 [3] [nM]
30 | C#Cc1cc(NCc2ccco2)c2oc(C[C@H](C)N)c(Br)c2n1 [Compound 112, 2-[(S)-2-aminopropyl]-3-bromo-5-ethynyl-7-(furfurylamino)-1-oxa-4-azaindene] | 101 to 500 | 0.01 to 100 | 101 to 500
31 | C[C@H](N)Cc1oc2c(NCc3ncco3)cc(Cl)nc2c1Br [Compound 124, 2-[(2S)-2-aminopropyl]-3-bromo-5-chloro-N-(1,3-oxazol-2-ylmethyl) furo[3,2-b]pyridin-7-amine] | 501 to 5000 | 501 to 5000 | 501 to 5000
